From patent publication US20260085076A1, “CRYSTAL FORM OF AROMATIC HETEROCYCLIC COMPOUND, COMPOSITION THEREOF, PRODUCTION METHOD THEREOF AND USES THEREOF” (Hangzhou Yuhong Pharmaceutical Technology Co., Ltd., priority 2023, published 2026)

Tests used:
JAK3 kinase = biological target: T1, JAK3 kinase (Homo sapiens, UniProt P52333); experiment: Mobility shift assay, JAK3 kinase inhibitory activity; assay type: biochemical; conditions: Caliper EZ Reader
T1 sequence (P52333 1-1124): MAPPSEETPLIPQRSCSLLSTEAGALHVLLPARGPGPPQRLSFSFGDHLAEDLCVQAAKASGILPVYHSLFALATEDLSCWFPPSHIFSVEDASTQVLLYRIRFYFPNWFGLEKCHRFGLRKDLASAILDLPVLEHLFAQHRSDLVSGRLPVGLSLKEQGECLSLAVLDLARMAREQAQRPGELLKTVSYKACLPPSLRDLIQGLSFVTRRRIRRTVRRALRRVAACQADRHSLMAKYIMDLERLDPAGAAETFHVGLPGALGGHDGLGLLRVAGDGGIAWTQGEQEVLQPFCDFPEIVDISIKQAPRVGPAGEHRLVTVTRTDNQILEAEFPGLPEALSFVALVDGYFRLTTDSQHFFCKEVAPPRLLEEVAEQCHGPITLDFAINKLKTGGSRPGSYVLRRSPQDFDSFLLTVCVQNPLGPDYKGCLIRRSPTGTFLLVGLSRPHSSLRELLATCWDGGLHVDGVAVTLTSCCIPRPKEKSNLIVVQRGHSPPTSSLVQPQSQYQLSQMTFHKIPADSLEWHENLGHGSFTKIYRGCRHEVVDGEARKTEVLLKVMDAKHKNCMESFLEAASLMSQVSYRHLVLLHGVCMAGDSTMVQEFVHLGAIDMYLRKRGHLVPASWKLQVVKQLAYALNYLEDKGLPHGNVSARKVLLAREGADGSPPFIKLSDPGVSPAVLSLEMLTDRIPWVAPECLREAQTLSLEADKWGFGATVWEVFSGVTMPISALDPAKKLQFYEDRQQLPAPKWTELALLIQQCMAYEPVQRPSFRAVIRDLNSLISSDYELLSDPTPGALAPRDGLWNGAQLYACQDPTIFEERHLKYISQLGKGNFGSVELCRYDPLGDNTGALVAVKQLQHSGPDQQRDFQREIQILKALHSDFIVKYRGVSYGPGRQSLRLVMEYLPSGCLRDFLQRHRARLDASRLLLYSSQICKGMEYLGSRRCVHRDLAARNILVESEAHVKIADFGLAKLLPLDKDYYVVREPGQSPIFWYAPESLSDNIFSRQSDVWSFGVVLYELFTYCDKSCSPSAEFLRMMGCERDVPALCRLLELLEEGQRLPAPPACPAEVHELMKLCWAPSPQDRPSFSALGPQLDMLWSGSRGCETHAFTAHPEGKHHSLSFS
Experimental: Mobility shift assay was used to detect the in vitro inhibitory activity of the test compounds (listed below) on JAK3 kinase activity. Cerdulatinib (supplier: selleckchem; Article number: S7634) was used as a positive control compound.
Compound was dissolved in 100% DMSO to formulate a 10 mM stock solution and stored in a −20° C. refrigerator away from light.
(1) 1×Kinase buffer was prepared.
After being gradient dilution to a 100-fold final concentration, 250 nL of solutions were transferred to a 384-well plate using Echo550. 250 nL of 100% DMSO were added to each of the negative control wells and the positive control wells, respectively.
(3) 2.5 times a final concentration of kinase solution was prepared with 1×Kinase buffer. […]
(10) The conversion rate was read by Caliper EZ Reader.
Wherein: Conversion %_sample is the conversion rate reading of the sample; Conversion %_min: the mean value of the negative control wells, representing the conversion rate reading of the wells without enzyme activity; Conversion %_max: the mean value of the positive control wells, representing the conversion rate reading of the wells without compound inhibition; % Inhibition represents the percentage inhibition rate. […]

[1] = tested on: p-STAT5 under IL-15 stimulation in PBMC (JAK-STAT pathway); experiment: p-STAT5 ELISA in IL-15 stimulated hPBMC cells; assay type: cell-based, human; conditions: Homo sapiens, PBMC, 45 min compound, 30 min IL-15, ELISA
Experimental: Based on the mechanism of JAK-STAT pathway, the effect of the compounds on the JAK-STAT pathway were evaluated by using cytokine IL-15 to stimulate hPBMC cells, and using the downstream STAT5 phosphorylation level as the detection index.
1. PBMC cell counting plate: 90 μL PBMC was seeded in a 96-well plate (PBMC cell density 80,000/well).
2. Treatment with test compounds: After cells being seeded, drug treatment was carried out immediately. The drugs to be tested at 5 μL/well (final concentrations 1, 0.5, 0.1, 0.05, 0.01, and 0.005 μM) were incubated at 37° C. for 45 min.
3. Cytokine IL-15 stimulation: The cells were stimulated by 5 μL IL-15, and incubated at 37° C. for 30 min.
4. Protein sample collection: The cells were collected in a centrifuge tube and centrifuged for 5 minutes. The supernatant was discarded and cells were lysed with 1× Cell Extraction Buffer PTR.
5. p-STAT5 detection: Perform detection according to the requirements of the ELISA kit.
Experimental results: IC50 values of compounds on p-STAT5 under IL-15 stimulation in PBMC

SRBC mouse model = experiment: SRBC-induced delayed-type hypersensitivity (DTH) in mice; assay type: in vivo, Balb/c mice; conditions: 100 mg/kg gavage once a day, day 0 to day 6, FIG. 76
Experimental: Drug formulation: The compound was added to 0.5% CMC-Na solution to formulate a drug suspension (dosage is 10 mg/mL).
Induction and administration of delayed-type hypersensitivity (DTH): 30 male Balb/c mice were weighed and randomly divided into 6 groups according to body weight, with 5 mice in each group. The experimental period lasted for 7 days. On day 0, mice were sensitized by subcutaneous injection of sheep red blood cells (SRBC). The mice were performed gavage administration at 100 mg/kg (once a day) from day 0 to day 6. On day 6, the mice were injected SRBC into the right hind foot pad for challenge. Measurements were taken on the 7th day of the experiment, and the experiment was concluded.
Pharmacodynamic detection indicators of disease models: the detection and observation indicators are the redness and swelling degree and thickness of the paw pads of SRBC-induced mice. The thickness of the right paw was measured on day 6 before the SRBC injection challenge as the baseline. The thickness of the right paw was measured again at the end of the experiment, the difference in paw thickness before and after the second injection was calculated.
Statistical analysis: The experimental data were expressed as mean±standard deviation (Mean±SD). All data were statistically analyzed using T-test, with P<0.05 considered statistically significant.

[2] = tested on: collagen-induced arthritis model in mice; experiment: Collagen-induced arthritis model in mice (mCIA); assay type: in vivo, DBA/1J mice; conditions: 50 mg/kg once a day, FIG. 77
Experimental: 1. Construction of collagen-induced arthritis model in mice (mCIA) Experimental purpose: To test the immunosuppressive activity of YZ001052 in the mCIA model. PF-06651600 was used as a positive control compound.
Complete and incomplete Freund's adjuvants with chicken type II collagen solution were mixed in equal proportions to form emulsions. Except for the blank control group, a mixture of complete Freund's adjuvant and chicken type II collagen solution was injected subcutaneously into the base of the tail and thigh of mice on Day 0. Each mouse was injected subcutaneously with 100 μL at the base of the tail, and injected 50 μL subcutaneously at the base of both thighs (primary immunization). On day 21, mice were injected subcutaneously with 200 μL of a mixture of incomplete Freund's adjuvant and chicken type II collagen as a booster injection (second immunization). Arthritis was considered to occur if the clinical score of at least one limb was >2 points. Paw thickness measurement: Using a vernier caliper to measure the thickness of the left and right hind feet of the mouse and record it, which is the degree of paw swelling. The detection frequency was once every 3 days.

[3] = tested on: DSS-induced inflammatory bowel disease model in mice; experiment: DSS-induced mouse inflammatory bowel disease model; assay type: in vivo, C57BL/6 mice; conditions: 50 mg/kg once a day, 5% DSS, day 8, compared with model group, FIG. 78
Experimental: Experimental purpose: To test the immunosuppressive activity of YZ001052 in DSS-induced inflammatory bowel disease model in mice. PF-06651600 was used as a positive control compound.
50 g of DSS was added 1000 mL of sterile water to formulate a 5% DSS solution, and the solution was filtered with a 0.22 μm filter membrane. Starting from day 0, the blank group was gave drinking water without DSS, and the other experimental groups were gave drinking water containing 5% DSS. All mice were sacrificed on day 8. After the experiment, the colon was collected, photographed and measured for length. The data were analyzed according to Statistics.

[4] = tested on: mouse model of acute radiation-induced lung injury; experiment: Acute radiation-induced lung injury in mice; assay type: in vivo, C57BL/6 mice; conditions: 30 mg/kg q.d., 22.5 Gy whole lung, three weeks after modeling
Experimental: Eighteen female C57BL/6 mice were divided randomly into three groups: blank control group, simple irradiation group, and irradiation+ drug YZ001052 (30 mg/kg q. d) intervention group, with 6 mice in each group.
The mice were anesthetized with 1% sodium pentobarbital by intraperitoneal injection, and irradiated the whole lung with 22.5 Gy in a single shot using 220 KV X-rays through the Small Animal Precision Radiotherapy Research Platform (SARRP). After irradiation, the mice were housed in a normal manner.
Three weeks after modeling, the mice were anesthetized and dissected. The lung tissues were exposed and the left lung was ligated, an open tracheotomy was performed, the lung was lavaged with cold PBS, and the alveolar lavage fluid (BALF) was collected and centrifuged at 4° C.
The supernatant was collected to detect the content of inflammatory factor TNF-α by ELISA.
Resuspend the bronchoalveolar lavage fluid cell pellet in 200 μL PBS for white blood cell (WBC) counting.

- IC50 (JAK3 kinase): 0.25 nM
SMILES: C=CC(=O)N1CCc2c(c(-c3ccnc4[nH]ccc34)nn2C)C1 [YZ001052, 1-(1-methyl-3-(1H-pyrrolo[2,3-b]pyridin-4-yl)-1,4,6,7-tetrahydro-5H-pyrazolo[4,3-c]pyridin-5-yl)prop-2-en-1-one]
- IC50 [1]: 10.7 nM
- immunosuppressive effect on SRBC-induced delayed-type hypersensitivity (right paw thickness) (SRBC mouse model): significant immunosuppressive effects
- paw swelling ([2]; CIA mice): improved to varying degrees
- arthritis score ([2]; compared with the model group): significantly decreased
- colorectal length [3]: significantly increased
- TNF-α level in bronchoalveolar lavage fluid ([4]; FIG. 79): good inhibitory effect
- number of inflammatory cell infiltration in the lungs (white blood cells in BALF) ([4]; FIG. 80): significantly reduce
